Results: US11331304B2, “YAP1 inhibitors and methods” (The Jackson Laboratory, priority 2016, dated 2022)

Key:
[1] = Solubility of verteporfin derivative compounds in water and buffer (pH = 2); type: physicochemical; details: for Buffer (pH = 2) result, fraction dissolved / Buffer (pH = 2) result: phosphate buffer pH = 2; for Water result: at the amount per volume in mg/mL
[2] = test system: mouse medulloblastoma cells; assay: IC50 / viability (Cell Titer Blue) in mouse medulloblastoma tumorsphere cell line; type: cell-based; details: FIGS. 9-11
Procedure: Uptake was calculated by measuring relative fluorescence in two different primary medulloblastoma cell lines. Absorbance measurements were normalized to t=0 with drugs in the well, the drugs were washed out 30 minutes later, and absorbance was measured again. FIG. 9B) IC50 in a mouse medulloblastoma tumorsphere cell line treated with verteporfin or a verteporfin derivative compound (T10, T11, T13, T14, or T15). DMSO was used as a control.
Primary cells from spontaneous mouse medulloblastoma ([…];p53^−/− or FSMO;GFAPcre) and MED311 PDX model were isolated and cultured in serum-free stem cell medium (DMEM/F12, B27, pen/strep, bFGF9 10 nanograms per milliliter (ng/mL)), and EGF (20 ng/mL). Number of self-renewing stem cells in vitro were measured by plating single cells at a clonal density (<1 cell/μL) and counting spheres >100 μM 7 days later. To establish IC50 values, 3000 mouse medulloblastoma cells were plated in 96 wells and treated varying concentrations of verteporfin and new derivatives were synthesized, in triplicate, and viability was measured using Cell Titer Blue assay (Promega, Madison, Wis.) 3 days after drug treatment.

Row | SMILES | Buffer (pH = 2) result, fraction dissolved [1] [%] | Water result [1] | Buffer (pH = 2) result [1] | solubility compared to VP [1] | activity / potency compared to VP [2]
1 | C=Cc1c(C)c2cc3nc(cc4[nH]c(cc5nc(cc1[nH]2)C(C)=C5CCC(=O)N[C@@H](CC(=O)O)C(=O)O)c(CCC(=O)OC)c4C)[C@@]1(C)C3=CC=C(C(=O)OC)[C@H]1C(=O)OC [Compound T1, (2S)-2-[3-[(23 S,24R)-14-ethenyl-5-(3-methoxy-3-oxopropyl)-22,23-bis(methoxycarbonyl)-4,10,15,24-tetramethyl-25,26,27,28-tetraazahexacyclo[16.6.1.13,6.18,11.113,16.019,24]octacosa-1,3,5,7,9,11(27),12,14,16,18(25), 19,21-dodecaen-9-yl]propanoylamino]butanedioic acid] | ~20 | insoluble |  |  | 
2 | C=Cc1c(C)c2cc3nc(cc4[nH]c(cc5nc(cc1[nH]2)C(C)=C5CCC(=O)N[C@@H](CC(=O)O)C(=O)O)c(CCC(=O)N[C@@H](CC(=O)O)C(=O)O)c4C)[C@@]1(C)C3=CC=C(C(=O)OC)[C@H]1C(=O)OC [Compound T3, (2S)-2-[3-[(23 S,24R)-14-ethenyl-5-[3-[[(1 S)-1,2-dicarboxyethyl]amino]-3-oxo-propyl]-22,23-bis(methoxycarbonyl)-4,10,15,24-tetramethyl-25,26,27,28-tetraazahexacyclo[16.6.1.13,6.18,11.113,16.019,24]octacosa-1,3,5,7,9,11(27),12,14,16,18(25), 19,21-dodecaen-9-yl]propanoylamino]butanedioic acid] |  | insoluble | insoluble |  | 
3 | C=Cc1c(C)c2cc3nc(cc4[nH]c(cc5nc(cc1[nH]2)C(C)=C5CCC(=O)NCCC(=O)N[C@@H](CC(=O)O)C(=O)O)c(CCC(=O)OC)c4C)[C@@]1(C)C3=CC=C(C(=O)OC)[C@H]1C(=O)OC [Compound T4, (2S)-2-[3-[3-[(23 S,24R)-14-ethenyl-5-(3-methoxy-3-oxopropyl)-22,23-bis(methoxycarbonyl)-4,10,15,24-tetramethyl-25,26,27,28-tetraazahexacyclo[16.6.1.13,6.18,11.113,16.019,24]octacosa-1,3,5,7,9,11(27),12,14,16,18(25), 19,21-dodecaen-9-yl]propanoylamino]propanoylamino]butanedioic acid] | ~80 | insoluble |  |  | 
4 | C=Cc1c(C)c2cc3nc(cc4[nH]c(cc5nc(cc1[nH]2)C(C)=C5CCC(=O)NCCCC[C@H](N)C(=O)O)c(CCC(=O)OC)c4C)[C@@]1(C)C3=CC=C(C(=O)OC)[C@H]1C(=O)OC [Compound T5, (2S)-2-amino-6-[3-[(23 S,24R)-14-ethenyl-5-(3-methoxy-3-oxopropyl)-22,23-bis(methoxycarbonyl)-4,10,15,24-tetramethyl-25,26,27,28-tetraazahexacyclo[16.6.1.13,6.18,11.113,16.019,24]octacosa-1,3,5,7,9,11(27),12,14,16,18(25), 19,21-dodecaen-9-yl]propanoylamino]hexanoic acid] |  | soluble | soluble |  | 
5 | C=Cc1c(C)c2cc3nc(cc4[nH]c(cc5nc(cc1[nH]2)C(C)=C5CCC(=O)NCCCC[C@H](N)C(=O)O)c(CCC(=O)NCCCC[C@H](N)C(=O)O)c4C)[C@@]1(C)C3=CC=C(C(=O)OC)[C@H]1C(=O)OC [Compound T7, (2S)-2-amino-6-[3-[(23 S,24R)-14-ethenyl-5-[3-[[(5 S)-5-amino-5-carboxy-pentyl]amino]-3-oxo-propyl]-22,23-bis(methoxycarbonyl)-4,10,15,24-tetramethyl-25,26,27,28-tetraazahexacyclo[16.6.1.13,6.18,11.113,16.019,24]octacosa-1,3,5,7,9,11(27),12,14,16,18(25), 19,21-dodecaen-9-yl]propanoylamino]hexanoic acid] |  | soluble | soluble |  | 
6 | C=Cc1c(C)c2cc3nc(cc4[nH]c(cc5nc(cc1[nH]2)C(C)=C5CCC(=O)OCCOCCOCCOC)c(CCC(=O)OC)c4C)[C@@]1(C)C3=CC=C(C(=O)OC)[C@H]1C(=O)OC [Compound T8, Methyl 3-[(23S,24R)-14-ethenyl-9-[3-[2-[2-(2-methoxyethoxy)ethoxy]ethoxy]-3-oxo-propyl]-22,23-bis(methoxycarbonyl)-4,10,15,24-tetramethyl-25,26,27,28-tetraazahexacyclo[16.6.1.13,6.18,11.113,16.019,24]octacosa-1,3,5,7,9,11(27),12,14,16,18(25), 19,21-dodecaen-5-yl]propanoate] |  | insoluble | insoluble |  | 
7 | C=Cc1c(C)c2cc3nc(cc4[nH]c(cc5nc(cc1[nH]2)C(C)=C5CCC(=O)OCCOCCOCCOC)c(CCC(=O)OCCOCCOCCOC)c4C)[C@@]1(C)C3=CC=C(C(=O)OC)[C@H]1C(=O)OC [Compound T9, 2-[2-(2-methoxyethoxy)ethoxy]ethyl 3-[(23 S,24R)-14-ethenyl-5-[3-[2-[2-(2-methoxyethoxy)ethoxy]ethoxy]-3-oxo-propyl]-22,23-bis(methoxycarbonyl)-4,10,15,24-tetramethyl-25,26,27,28-tetraazahexacyclo[16.6.1.13,6.18,11.113,16.019,24]octacosa-1,3,5,7,9,11(27),12,14,16,18(25), 19,21-dodecaen-9-yl]propanoate] |  |  |  | decreased solubility | decreased solubility and activity
8 | C=Cc1c(C)c2cc3nc(cc4[nH]c(cc5nc(cc1[nH]2)C(C)=C5CCC(=O)OCCOCCOCCOCCOCCOCCOCCOC)c(CCC(=O)OC)c4C)[C@@]1(C)C3=CC=C(C(=O)OC)[C@H]1C(=O)OC [Compound T10, Methyl 3-[(23S,24R)-14-ethenyl-9-[3-[2-[2-[2-[2-[2-[2-(2-methoxyethoxy)ethoxy]ethoxy]ethoxy]ethoxy]ethoxy]ethoxy]-3-oxo-propyl]-22,23-bis(methoxycarbonyl)-4,10,15,24-tetramethyl-25,26,27,28-tetraazahexacyclo[16.6.1.13,6.18,11.113,16.019,24]octacosa-1,3,5,7,9,11(27),12,14,16,18(25), 19,21-dodecaen-5-yl]propanoate] |  | insoluble | insoluble |  | 
9 | C=Cc1c(C)c2cc3nc(cc4[nH]c(cc5nc(cc1[nH]2)C(C)=C5CCC(=O)NCCN(C)C)c(CCC(=O)OC)c4C)[C@@]1(C)C3=CC=C(C(=O)OC)[C@H]1C(=O)OC [Compound T11, Methyl 3-[(23 S,24R)-14-ethenyl-9-[3-[2-(dimethylamino)ethylamino]-3-oxo-propyl]-22,23-bis(methoxycarbonyl)-4,10,15,24-tetramethyl-25,26,27,28-tetraazahexacyclo[16.6.1.13,6.18,11.113,16.019,24]octacosa-1,3,5,7,9,11(27), 12,14,16,18(25), 19,21-dodecaen-5-yl]propanoate] | ~70 | insoluble |  |  | 
10 | C=Cc1c(C)c2cc3nc(cc4[nH]c(cc5nc(cc1[nH]2)C(C)=C5CCC(=O)NCCN(C)C)c(CCC(=O)NCCN(C)C)c4C)[C@@]1(C)C3=CC=C(C(=O)OC)[C@H]1C(=O)OC [Compound T13, N-[2-(dimethylamino)ethyl]-3-[(23 S,24R)-14-ethenyl-5-[3-[2-(dimethylamino)ethylamino]-3-oxo-propyl]-22,23-bis(methoxycarbonyl)-4,10,15,24-tetramethyl-25,26,27,28-tetraazahexacyclo[16.6.1.13,6.18,11.113,16.019,24]octacosa-1,3,5,7,9,11(27), 12,14,16,18(25), 19,21-dodecaen-9-yl]propanamide] |  |  |  | more soluble | more soluble and potent than VP
11 | C=Cc1c(C)c2cc3nc(cc4[nH]c(cc5nc(cc1[nH]2)C(C)=C5CCC(=O)N(C)CCN(C)C)c(CCC(=O)OC)c4C)[C@@]1(C)C3=CC=C(C(=O)OC)[C@H]1C(=O)OC [Compound T14, Methyl 3-[(23S,24R)-14-ethenyl-9-[3-[2-(dimethylamino)ethyl-methyl-amino]-3-oxo-propyl]-22,23-bis(methoxycarbonyl)-4,10,15,24-tetramethyl-25,26,27,28-tetraazahexacyclo[16.6.1.13,6.18,11.113,16.019,24]octacosa-1,3,5,7,9,11(27), 12,14,16,18(25), 19,21-dodecaen-5-yl]propanoate] |  | insoluble | soluble |  | 
12 | C=Cc1c(C)c2cc3nc(cc4[nH]c(cc5nc(cc1[nH]2)C(C)=C5CCC(=O)N(C)CCN(C)C)c(CCC(=O)N(C)CCN(C)C)c4C)[C@@]1(C)C3=CC=C(C(=O)OC)[C@H]1C(=O)OC [Compound T15, N-[2-(dimethylamino)ethyl]-3-[(23 S,24R)-14-ethenyl-5-[3-[2-(dimethylamino)ethyl-methyl-amino]-3-oxo-propyl]-22,23-bis(methoxycarbonyl)-4,10,15,24-tetramethyl-25,26,27,28-tetraazahexacyclo[16.6.1.13,6.18,11.113,16.019,24]octacosa-1,3,5,7,9,11(27), 12,14,16,18(25),19,21-dodecaen-9-yl]-N-methyl-propanamide] |  | soluble | soluble |  | 
